Reference: patent US8207211B2, “Photosensitizers for targeted photodynamic therapy” (The General Hospital Corporation, priority 2005, dated 2012)

What was measured:
[1] = tested on: C. albicans; assay: Photodynamic inactivation (PDI), CFU survival, white light (red light for TBO); assay type: cell-based, Candida albicans; conditions: 10 μM, 10 min
Method: (§1) Staphylococcus aureus (ATCC #35556), Escherichia coli (ATCC #25922), and Pseudomonas aeruginosa (ATCC #BAA-47; PAO1) were cultured in brain-heart infusion (BHI) broth (Difco, BD Diagnosttic Systems, Sparks, Md.) at 37° C. in aerobic conditions in a shaker at 150 rpm. Candida albicans (ATCC #18804) is grown in YM broth (Difco). Exponential cultures obtained by reculturing stationary overnight precultures were used for experiments.
(§2) E. coli, P. aeruginosa, and S. aureus are grown in fresh medium for approximately 1 hr to a density of about 10^8 cells/ml; the OD values at 650 nm are 0.6, 0.8, and 0.8, respectively. C. albicans is grown for approximately 4 hr to an approximate density of 10^8 cells/ml, corresponding to an OD of 6 at 650 nm (measured at 10-fold dilution). Cells were used for experiments in the mid-log growth phase.
(§3) A noncoherent lamp with filtered liquid light guides, e.g., a LumaCare™ LC122 lamp (MBG Technologies, Inc., Newport Beach, Calif.) was used to provide illumination of PS. More specifically, for illumination of fullerenes, a broad-band white light band pass filter (400-700 nm) was used, whereas for TBO, a band pass filter at 620-650 nm was used. The lamp was adjusted to give a uniform spot of about 4 cm diameter with an irradiance of 200 mW/cm^2, as measured with a power meter, e.g., a model DMM 199 meter with 201 Standard head (Coherent, Santa Clara, Calif.).
(§4) Typically, derivatized fullerenes prepared as described above are dissolved in DMSO to provide stock solutions having final concentrations of about 5 mM. […] All stock solutions were stored in the dark at room temperature.
(§5) In some experiments, for example in studies described in Examples below, suspensions of S. aureus cells (10^8 per ml) were incubated with derivatized fullerenes such as NI-1-3 and CI1-3 at a concentration of 100 μM in PBS at room temperature for 10 min. In other experiments, the bacterial suspension was centrifuged (4000×g for 10 min) after incubation and resuspended in fresh PBS before illumination; the latter procedure was referred to herein as a “wash.” E. coli, P. aeruginosa, and C. albicans were used at concentrations of about 10^8 cells per ml.
(§6) Illumination was carried out from above on microbial cell suspensions in wells of a 24-well plate. Aliquots were removed at times corresponding to the delivery of calculated fluences of light, and were serially diluted in PBS and streaked on square BHI or YM agar plates according to the method of Jett et al. (Jett, B. D., Hatter, K. L., Huycke, M. M., and Gilmore, M. S. (1997). Simplified agar plate method for quantifying viable bacteria. Biotechniques 23, 648-650). Survival fractions were calculated with reference to cells incubated in PBS alone. Values on killing curves at 0 J/cm^2 represent the dark toxicity of the fullerenes or other PS tested. Control cells were treated with light and no PS and also analyzed for viability.

[2] = tested on: E. coli; assay: as above; assay type: cell-based, Escherichia coli; conditions: 10 μM
Method: as §1, §2, §3, §4, §5, §6

[3] = tested on: P. aeruginosa; assay: Photodynamic inactivation (PDI), CFU survival, 405-nm light (Example 8); assay type: cell-based, Pseudomonas aeruginosa
Source text: Four microbial species were used in this study. Briefly, Escherichia coli was purchased from ATCC (ATCC #25922), Pseudomonas aeruginosa, two clinical isolates, were obtained; UCBP PA 14 from L. Rahme (Massachusetts General Hospital) and PA 767K from Kim Lewis (Tufts University), slime deficient mutant of Staphylococcus aureus was obtained from Gerald B Pier (Channing Laboratories). Yeast strain Candida albicans was purchased from ATCC (ATCC #18804). Exponential cultures obtained by reculturing stationary overnight cultures were used for all experiments. Bacteria were grown at 37° C. in BHI broth to a cell density of 10^8 cells per mL. C. albicans was grown 37° C. in YM medium to 10^7 cells/mL.
Six fullerene derivatives (NI1-3 and CI1-3) were evaluated. […] Concentration of fullerene derivatives used in the experiments varied between 1 and 100 μM.
Fullerene derivatives were mixed with microbial suspensions and incubated in the dark at room temperature for 10 minutes. Excess fullerenes were either washed out of, or left in, the suspensions before illumination. […]
During illumination, aliquots of 20 μL were taken to determine the colony-forming units. […] Colonies were counted and survival fraction was determined as percent of survival compared to control. […]

## C[N+]1(C)Cc2c(c3c4ccc5c6ccc7c8ccc9c%10c%11c%12c(c2c2c3c3c4c5c4c6c7c5c8c9c%11c6c(c%122)c3c4c56)C2C[N+](C)(C)CC%102)C1 (stereo not shown) [CI2]
[1]; white light up to 50 J/cm^2
  PDT activity against C. albicans: effectively killed
[1]; with a wash, white light
  relative effectiveness in killing C. albicans: much better than CI1
[2]; 10 min, 10% FBS, with a wash, white light
  change of E. coli killing in the presence of serum versus no serum: about 1 log
[2]; 10 min, white light up to 50 J/cm^2
  PDT activity against E. coli: effectively killed
[2]; with a wash, 2 J/cm^2 white light
  killing of E. coli: 4 logs
[3]; 10-20 μM, 16 J/cm^2 of 405-nm light
  killing of P. aeruginosa: high levels of killing
[3]; illumination with versus without a wash, 405 nm
  effect of a wash on killing of P. aeruginosa: more killing after a wash
